Tests used:
[1] = test system: antibodies in sera from SARS patients (sera 1a, 1b, 2, 6, 37, 62, London, SARS-yellow, SARS-green); assay type: binding, human; parameters: Binding of serum 6 to linear peptides of protein X1 of SARS-CoV Urbani / Binding of serum 37 to linear peptides of protein X1 of SARS-CoV Urbani / Binding of serum 6 to looped/cyclic peptide (PEPSCAN-ELISA) / Binding of serum 37 to looped/cyclic peptide (PEPSCAN-ELISA) / Binding of serum 37 to looped/cyclic peptides of protein X1 of SARS-CoV Urbani / Binding of serum 6 to linear peptides of protein X2 / Binding of serum 37 to linear peptides of protein X2 / Binding of serum 37 to looped/cyclic peptides of protein X2 of SARS-CoV Urbani / Binding of serum 6 to linear peptides of protein M of SARS-CoV Urbani / Binding of serum 37 to linear peptides of protein M of SARS-CoV Urbani / Binding of serum 6 to looped/cyclic peptides of protein M of SARS-CoV Urbani / Binding of serum 37 to looped/cyclic peptides of protein M of SARS-CoV Urbani / Binding of serum 6 to linear peptides of protein X3 of SARS-CoV Urbani / Binding of serum 37 to linear peptides of protein X3 of SARS-CoV Urbani / Binding of serum 37 to looped/cyclic peptides of protein X3 of SARS-CoV Urbani / Binding of serum 6 to linear peptides of protein X4 of SARS-CoV Urbani / Binding of serum 37 to linear peptides of protein X4 of SARS-CoV Urbani / Binding of serum 37 to looped/cyclic peptides of protein X4 of SARS-CoV Urbani / Binding of serum 6 to linear peptides of protein X5 of SARS-CoV Urbani / Binding of serum 37 to linear peptides of protein X5 of SARS-CoV Urbani / Binding of serum 37 to looped/cyclic peptides of protein X5 of SARS-CoV Urbani / Binding of serum 6 to linear peptides of protein N of SARS-CoV Urbani / Binding of serum 37 to linear peptides of protein N of SARS-CoV Urbani / Binding of serum 6 to linear peptide (PEPSCAN-ELISA) / Binding of serum 1a to looped/cyclic peptides of protein N of SARS-CoV Urbani / Binding of serum 1b to looped/cyclic peptides of protein N of SARS-CoV Urbani / Binding of serum 2 to looped/cyclic peptides of protein N of SARS-CoV Urbani / Binding of serum 6 to looped/cyclic peptides of protein N of SARS-CoV Urbani / Binding of serum 37 to looped/cyclic peptides of protein N of SARS-CoV Urbani / Binding of serum 62 to looped/cyclic peptides of protein N of SARS-CoV Urbani / Binding of serum London to looped/cyclic peptides of protein N of SARS-CoV Urbani / Binding of serum SARS-green to looped/cyclic peptides of protein N of SARS-CoV Urbani: unit not given here
[2] = test system: control sera (pooled serum of ten healthy LUMC hospital workers; commercial negative donor pooled serum from the Dutch bloodbank); assay type: binding, human; parameters: Binding of Control serum LUMC to linear peptides / Binding of Control serum Blood-bank to linear peptides / Binding of Control serum LUMC to looped peptides / Binding of Control Serum Blood-Bank to Looped peptides / Binding of Control serum LUMC to linear peptides of the protein M of SARS-CoV Urbani / Binding of Control serum Blood-bank to linear peptides of the protein M of SARS-CoV Urbani / Binding of Control serum LUMC to looped peptides of the protein M of SARS-CoV Urbani / Binding of Control Serum Blood-Bank to Looped peptides of the protein M of SARS-CoV Urbani: unit not given here
[3] = test system: rabbit serum obtained by immunizing a rabbit with the SARS-CoV strain Frankfurt 1; assay type: binding; parameters: Binding of a rabbit serum to linear peptides / Binding of a rabbit serum to looped peptides / Rabbit serum linear peptides / Rabbit serum looped peptides / Binding of a rabbit serum to linear peptides of protein N of SARS-CoV Urbani (Rabbit serum linear peptides) / Binding of a rabbit serum to looped/cyclic peptides of protein N of SARS-CoV Urbani (Rabbit serum looped peptides): unit not given here
[4] = test system: recombinant human anti-SARS-CoV antibody 03-018; assay type: binding; parameters: Binding of antibody 03-018 to linear peptides of the N protein of SARS-CoV Urbani / Binding of antibody 03-018 to looped/cyclic peptides of the N protein of SARS-CoV Urbani: unit not given here

## ASKKPRQKRTATKQY
[1]
  Binding of serum 1a to linear peptide (PEPSCAN-ELISA): 0.2
  Binding of serum 1a to looped/cyclic peptides of protein N of SARS-CoV Urbani: 0.3
  Binding of serum 1b to linear peptide (PEPSCAN-ELISA): 0.1
  Binding of serum 1b to looped/cyclic peptides of protein N of SARS-CoV Urbani: 0.1
  Binding of serum 2 to linear peptide (PEPSCAN-ELISA): 0.3
  Binding of serum 2 to looped/cyclic peptides of protein N of SARS-CoV Urbani: 0.3
  Binding of serum 6 to linear peptide (PEPSCAN-ELISA): 0.2
  Binding of serum 6 to looped/cyclic peptides of protein N of SARS-CoV Urbani: 0.2
  Binding of serum 37 to linear peptide (PEPSCAN-ELISA): 0.7
  Binding of serum 37 to looped/cyclic peptides of protein N of SARS-CoV Urbani: 0.5
  Binding of serum 62 to linear peptide (PEPSCAN-ELISA): 0.6
  Binding of serum 62 to looped/cyclic peptides of protein N of SARS-CoV Urbani: 0.5
  Binding of serum London to linear peptide (PEPSCAN-ELISA): 0.5
  Binding of serum London to looped/cyclic peptides of protein N of SARS-CoV Urbani: 0.4
  Binding of serum SARS-green to linear peptide (PEPSCAN-ELISA): 0.3
  Binding of serum SARS-green to looped/cyclic peptides of protein N of SARS-CoV Urbani: 0.1
  Binding of serum SARS-yellow to linear peptide (PEPSCAN-ELISA): 0.5
  Binding of serum SARS-yellow to looped/cyclic peptides of protein N of SARS-CoV Urbani: 0.2
[2]
  Binding of Control Serum Blood-Bank to Looped peptides: 0.6
  Binding of Control serum Blood-bank to linear peptides: 0.7
  Binding of Control serum LUMC to linear peptides: 0.6
  Binding of Control serum LUMC to looped peptides: 0.5
[3]
  Binding of a rabbit serum to linear peptides of protein N of SARS-CoV Urbani (Rabbit serum linear peptides): 0.2
  Binding of a rabbit serum to looped/cyclic peptides of protein N of SARS-CoV Urbani (Rabbit serum looped peptides): 0.4
[4]
  Binding of antibody 03-018 to linear peptides of the N protein of SARS-CoV Urbani: 0.1
  Binding of antibody 03-018 to looped/cyclic peptides of the N protein of SARS-CoV Urbani: 0.2

## ASSRSSSRSRGNSRN
[1]
  Binding of serum 1a to linear peptide (PEPSCAN-ELISA): 0.2
  Binding of serum 1a to looped/cyclic peptides of protein N of SARS-CoV Urbani: 0.3
  Binding of serum 1b to linear peptide (PEPSCAN-ELISA): 0.1
  Binding of serum 1b to looped/cyclic peptides of protein N of SARS-CoV Urbani: 0.2
  Binding of serum 2 to linear peptide (PEPSCAN-ELISA): 0.2
  Binding of serum 2 to looped/cyclic peptides of protein N of SARS-CoV Urbani: 0.4
  Binding of serum 6 to linear peptide (PEPSCAN-ELISA): 0.2
  Binding of serum 6 to looped/cyclic peptides of protein N of SARS-CoV Urbani: 0.3
  Binding of serum 37 to linear peptide (PEPSCAN-ELISA): 0.6
  Binding of serum 37 to looped/cyclic peptides of protein N of SARS-CoV Urbani: 0.6
  Binding of serum 62 to linear peptide (PEPSCAN-ELISA): 0.5
  Binding of serum 62 to looped/cyclic peptides of protein N of SARS-CoV Urbani: 0.5
  Binding of serum London to linear peptide (PEPSCAN-ELISA): 0.5
  Binding of serum London to looped/cyclic peptides of protein N of SARS-CoV Urbani: 0.4
  Binding of serum SARS-green to linear peptide (PEPSCAN-ELISA): 0.3
  Binding of serum SARS-green to looped/cyclic peptides of protein N of SARS-CoV Urbani: 0.2
  Binding of serum SARS-yellow to linear peptide (PEPSCAN-ELISA): 0.7
  Binding of serum SARS-yellow to looped/cyclic peptides of protein N of SARS-CoV Urbani: 0.4
[2]
  Binding of Control Serum Blood-Bank to Looped peptides: 0.6
  Binding of Control serum Blood-bank to linear peptides: 0.6
  Binding of Control serum LUMC to linear peptides: 0.7
  Binding of Control serum LUMC to looped peptides: 0.6
[3]
  Binding of a rabbit serum to linear peptides of protein N of SARS-CoV Urbani (Rabbit serum linear peptides): 0.3
  Binding of a rabbit serum to looped/cyclic peptides of protein N of SARS-CoV Urbani (Rabbit serum looped peptides): 0.7
[4]
  Binding of antibody 03-018 to linear peptides of the N protein of SARS-CoV Urbani: 0.1
  Binding of antibody 03-018 to looped/cyclic peptides of the N protein of SARS-CoV Urbani: 0.2

## ATKQYNVTQAFGRRG
[1]
  Binding of serum 1a to linear peptide (PEPSCAN-ELISA): 0.3
  Binding of serum 1a to looped/cyclic peptides of protein N of SARS-CoV Urbani: 0.4
  Binding of serum 1b to linear peptide (PEPSCAN-ELISA): 0.2
  Binding of serum 1b to looped/cyclic peptides of protein N of SARS-CoV Urbani: 0.3
  Binding of serum 2 to linear peptide (PEPSCAN-ELISA): 0.2
  Binding of serum 2 to looped/cyclic peptides of protein N of SARS-CoV Urbani: 0.5
  Binding of serum 6 to linear peptide (PEPSCAN-ELISA): 0.2
  Binding of serum 6 to looped/cyclic peptides of protein N of SARS-CoV Urbani: 0.5
  Binding of serum 37 to linear peptide (PEPSCAN-ELISA): 0.7
  Binding of serum 37 to looped/cyclic peptides of protein N of SARS-CoV Urbani: 0.7
  Binding of serum 62 to linear peptide (PEPSCAN-ELISA): 0.6
  Binding of serum 62 to looped/cyclic peptides of protein N of SARS-CoV Urbani: 0.7
  Binding of serum London to linear peptide (PEPSCAN-ELISA): 0.5
  Binding of serum London to looped/cyclic peptides of protein N of SARS-CoV Urbani: 1.2
  Binding of serum SARS-green to linear peptide (PEPSCAN-ELISA): 0.3
  Binding of serum SARS-green to looped/cyclic peptides of protein N of SARS-CoV Urbani: 0.2
  Binding of serum SARS-yellow to linear peptide (PEPSCAN-ELISA): 0.8
  Binding of serum SARS-yellow to looped/cyclic peptides of protein N of SARS-CoV Urbani: 0.8
[2]
  Binding of Control Serum Blood-Bank to Looped peptides: 0.8
  Binding of Control serum Blood-bank to linear peptides: 0.9
  Binding of Control serum LUMC to linear peptides: 0.8
  Binding of Control serum LUMC to looped peptides: 0.8
[3]
  Recognition of the peptide by the rabbit serum: recognized
[4]
  Binding of antibody 03-018 to linear peptides of the N protein of SARS-CoV Urbani: 0.1
  Binding of antibody 03-018 to looped/cyclic peptides of the N protein of SARS-CoV Urbani: 0.3
